Assay results from patent US8273754B2, “Substituted 1H-pyrazolo[3,4-D]pyrimidine-6-amine compounds” (ArQule, Inc., priority 2008, dated 2012).
Where two headings read alike, the source gives them in different places.

Test system: cancer cells
Test: MTS cell growth inhibition assay (72 hours)
Format: cell-based
Method: Cells were maintained at 37° C., 5% CO2 in DMEM media supplemented with 1% fetal bovine serum, penicillin/streptomycin and fungizone (Invitrogen). Cells were seeded into 96-well tissue culture plates at 3000 per well and cultured at 37° C. for 18 hours. Test compounds were dissolved and diluted to 300× in DMSO then further diluted 1:40 in DMEM before addition to cells (1:7.5 dilution). Cells were incubated with test compounds for 72 hours followed by incubation with tetrazolium compound (3-(4,5-dimethylthiazol-2-yl)-5-(3-carboxymethoxyphenyl)-2-(4-sulfophenyl)-2H-tetrazolium, inner salt; MTS) and the electron coupling reagent, phenazine methosulfate (PMS) for 4 hours. […] The ability of compounds to inhibit cell growth in this assay is correlated with the reduction of dehydrogenase enzyme activity found in metabolically active cells. The measurement of the absorbance of the formazan was assessed using an ENVISION™ (Perkin Elmer) microplate reader at 492 nm. The calculated IC50 value is the concentration of the test compound that causes a 50% decrease in the absorbance. […] A=>79% inhibition, B=>50 to 79% inhibition, C=<50% inhibition.

[1] = Homo sapiens, DLD-1, 72 h, DLD-1 cells, read-out: DLD-1 MTS 72 hr at 10 μM
[2] = Homo sapiens, KATO III, 72 h, KATO III cells, read-out: KATO III MTS 72 hr at 10 μM
[3] = Homo sapiens, MDA-MB-231, 72 h, MDA-MB-231 cells, read-out: MDA-MB-231 MTS 72 hr at 10 μM
[4] = Homo sapiens, NCI-H1299, 72 h, NCI-H1299 cells, read-out: NCI-H1299 MTS 72 hr at 10 μM
[5] = PaCa-2, 72 h, PACA-2 cells, read-out: PACA-2 MTS 72 hr at 10 μM

Compound | inhibition at 10 µM [1] [%] | inhibition at 10 µM [2] [%] | inhibition at 10 µM [3] [%] | inhibition at 10 µM [4] [%] | inhibition at 10 µM [5] [%]
CC1(C)CCc2cc(CN3CC(Nc4nc(N)nc5[nH]ncc45)Cc4ccccc43)ccc2O1 (centres unmarked) [Compound 147, N4-{1-[(2,2-dimethyl-3,4-dihydro-2H-chromen-6-yl)methyl]-1,2,3,4-tetrahydroquinolin-3-yl}-1H-pyrazolo[3,4-d]pyrimidine-4,6-diamine] | > 79 | > 79 | 50 to 79 | < 50 | > 79
Nc1nc(NC2Cc3ccccc3N(Cc3c(F)cccc3Cl)C2)c2cn[nH]c2n1 (centres unmarked) [Compound 140, N4-[1-(2-chloro-6-fluorobenzyl)-1,2,3,4-tetrahydroquinolin-3-yl]-1H-pyrazolo[3,4-d]pyrimidine-4,6-diamine] | > 79 | > 79 | > 79 | 50 to 79 | > 79
COc1ccc(-c2cccc(S(=O)(=O)N3CC(Nc4nc(N)nc5[nH]ncc45)Cc4ccccc43)c2)cc1 (centres unmarked) [Compound 63, N4-(1-(4′-methoxybiphenyl-3-ylsulfonyl)-1,2,3,4-tetrahydroquinolin-3-yl)-1H-pyrazolo[3,4-d]pyrimidine-4,6-diamine] | 50 to 79 | > 79 | < 50 | 50 to 79 | 50 to 79
Nc1nc(NC2CCN(S(=O)(=O)c3ccc4c(c3)OCCO4)c3ccccc3C2)c2cn[nH]c2n1 (centres unmarked) [Compound 165, N4-[1-(2,3-dihydro-1,4-benzodioxin-6-ylsulfonyl)-2,3,4,5-tetrahydro-1H-1-benzazepin-4-yl]-1H-pyrazolo[3,4-d]pyrimidine-4,6-diamine] | < 50 | < 50 | < 50 | < 50 | < 50
Nc1nc(NC2Cc3ccccc3N(C(=O)Cc3ccccc3)C2)c2cn[nH]c2n1 (centres unmarked) [Compound 87, 1-(3-(6-amino-1H-pyrazolo[3,4-d]pyrimidin-4-ylamino)-3,4-dihydroquinolin-1(2H)-yl)-2-phenylethanone] | < 50 | < 50 | < 50 | < 50 | < 50
COc1cccc(CN2CC(Nc3nc(N)nc4[nH]ncc34)Cc3ccccc32)c1F (centres unmarked) [Compound 137, N4-[1-(2-fluoro-3-methoxybenzyl)-1,2,3,4-tetrahydroquinolin-3-yl]-1H-pyrazolo[3,4-d]pyrimidine-4,6-diamine] | > 79 | > 79 | > 79 | > 79 | > 79
Nc1nc(NC2Cc3ccccc3N(S(=O)(=O)c3cccc(NC(=O)Nc4cccc(F)c4)c3)C2)c2cn[nH]c2n1 (centres unmarked) [Compound 219, 1-[3-({3-[(6-amino-1H-pyrazolo[3,4-d]pyrimidin-4-yl)amino]-3,4-dihydroquinolin-1(2H)-yl}sulfonyl)phenyl]-3-(3-fluorophenyl)urea] | > 79 | > 79 | > 79 | > 79 | > 79
COc1cc(F)ccc1CN1CC(Nc2nc(N)nc3[nH]ncc23)Cc2ccccc21 (centres unmarked) [Compound 141, N4-[1-(4-fluoro-2-methoxybenzyl)-1,2,3,4-tetrahydroquinolin-3-yl]-1H-pyrazolo[3,4-d]pyrimidine-4,6-diamine] | > 79 | > 79 | > 79 | > 79 | > 79
Nc1nc(NC2Cc3ccccc3N(S(=O)(=O)c3ccc(Oc4ccccc4)cc3)C2)c2cn[nH]c2n1 (centres unmarked) [Compound 27, N4-(1-(4-phenoxyphenylsulfonyl)-1,2,3,4-tetrahydroquinolin-3-yl)-1H-pyrazolo[3,4-d]pyrimidine-4,6-diamine] | > 79 | > 79 | > 79 | 50 to 79 | > 79
Nc1nc(NC2Cc3ccccc3N(C(=O)Nc3cc(C(F)(F)F)ccc3F)C2)c2cn[nH]c2n1 (centres unmarked) [Compound 108, 3-(6-amino-1H-pyrazolo[3,4-d]pyrimidin-4-ylamino)-N-(2-fluoro-5-(trifluoromethyl)phenyl)-3,4-dihydroquinoline-1(2H)-carboxamide] | < 50 | < 50 | < 50 | < 50 | < 50
Nc1nc(NC2Cc3ccccc3N(Cc3ccc(-c4ccccn4)cc3)C2)c2cn[nH]c2n1 (centres unmarked) [Compound 143, N4-[1-(4-pyridin-2-ylbenzyl)-1,2,3,4-tetrahydroquinolin-3-yl]-1H-pyrazolo[3,4-d]pyrimidine-4,6-diamine] | < 50 | < 50 | < 50 | < 50 | < 50
COc1cc(C)c(S(=O)(=O)N2CC(Nc3nc(N)nc4[nH]ncc34)Cc3ccccc32)c(C)c1C (centres unmarked) [Compound 72, N4-(1-(4-methoxy-2,3,6-trimethylphenylsulfonyl)-1,2,3,4-tetrahydroquinolin-3-yl)-1H-pyrazolo[3,4-d]pyrimidine-4,6-diamine] | > 79 | > 79 | 50 to 79 | < 50 | > 79
Nc1nc(NC2Cc3ccccc3N(S(=O)(=O)c3ccc(-c4ccccc4)cc3)C2)c2cn[nH]c2n1 (centres unmarked) [Compound 16, N4-(1-(biphenyl-4-ylsulfonyl)-1,2,3,4-tetrahydroquinolin-3-yl)-1H-pyrazolo[3,4-d]pyrimidine-4,6-diamine] | 50 to 79 | 50 to 79 | < 50 | < 50 | 50 to 79
Cc1ccc(C)c(S(=O)(=O)N2CCC(Nc3nc(N)nc4[nH]ncc34)Cc3ccccc32)c1 (centres unmarked) [Compound 184, N4-{1-[(2,5-dimethylphenyl)sulfonyl]-2,3,4,5-tetrahydro-1H-1-benzazepin-4-yl}-1H-pyrazolo[3,4-d]pyrimidine-4,6-diamine] | < 50 | < 50 | < 50 | < 50 | < 50
Nc1nc(NC2Cc3ccccc3N(S(=O)(=O)c3cccc(Br)c3)C2)c2cn[nH]c2n1 (centres unmarked) [Compound 41, N4-(1-(3-bromophenylsulfonyl)-1,2,3,4-tetrahydroquinolin-3-yl)-1H-pyrazolo[3,4-d]pyrimidine-4,6-diamine] | < 50 | > 79 | < 50 | < 50 | < 50
Nc1nc(NC2CCN(S(=O)(=O)c3ccc(F)c(Cl)c3)c3ccccc3C2)c2cn[nH]c2n1 (centres unmarked) [Compound 181, N4-{1-[(3-chloro-4-fluorophenyl)sulfonyl]-2,3,4,5-tetrahydro-1H-1-benzazepin-4-yl}-1H-pyrazolo[3,4-d]pyrimidine-4,6-diamine] | < 50 | < 50 | < 50 | < 50 | 50 to 79
